Assay results as given in paper PMC13371181, “A paracrine-to-autocrine shunt of GREM1 fuels colorectal cancer metastasis via ACVR1C” (Molecular Cancer, 2026).
“Also recorded” adds a separate entry of the source.

Key:
[1] = tested on: SNAI1 promoter; test: ChIP–qPCR, SMAD2/3/4 binding to SNAI1 promoter; format: cell-based, human; conditions: SW480 cells, SB505124 10 µM, 24 h, n = 3 independent experiments
Description: (§1) SW480 cells were starved in DMEM with 1% FCS overnight before treatment with vehicle, 10 µM SB505124 for 24 h. Cells were fixed in 1% paraformaldehyde for 10 min at RT for DNA-protein cross-linking, followed by quenching with glycine. Cross-linking chromatin was prepared using the SimpleChIP® Enzymatic Chromatin IP Kit (CST, 9002) according to the manufacturer’s instructions. For immunoprecipitation, 10 µg chromatin was incubated with 10 µL anti-histone H3 rabbit IgG (CST, 14269, positive control), 2 µL normal Rabbit IgG (CST, 2729) or 5 µL anti-SMAD2/3 rabbit IgG (CST, 8685) at 4 °C overnight. 2% chromatin prior to immunoprecipitation was used as input. Chromatin-protein-antibody complex was captured by protein G magnetic beads, and chromatin was released by reversal of cross-links and purified using the SimpleChIP® Enzymatic Chromatin IP Kit (CST, 9002) according to the manufacturer’s instructions. DNA was quantified by qPCR with primers targeting predicted SMAD2/3/4 binding regions on GREM1 or SNAI1 promoters. DNA levels were normalized to the input, and the fold-change of enrichment was calculated over the control. ChIP–qPCR primers are listed in Supplementary Table 2.

[2] = tested on: GREM1 promoter; test: ChIP–qPCR, SMAD2/3/4 binding to GREM1 promoter; format: cell-based, human; conditions: SW480 cells, SB505124 10 µM, 24 h, n = 3 independent experiments
Description: as §1

[3] = tested on: type I TGFβ/Activin receptors; conditions: SB505124; cited from earlier work
Description: Fig. 3 Secretory GREM1 binding of ACVR1C induces EMT via SMAD2/3 pathway. A, RNA sequencing was performed on HCT116 cells treated with GREM1 conditioned medium (GREM1-CM) or vector control conditioned medium (Vec-CM), followed by GSEA of the C2 gene sets. NES, normalized enrichment score; all P values equal to 0. B, Activation levels of the ACVR1C pathway markers (p-SMAD2/3 and SMAD2/3), as well as expression of the epithelial marker (E-CAD) and the mesenchymal markers (SNAIL, ZEB1, and β-CAT) were compared by immunoblotting analysis in SW480 and HCT116 cells treated with Vec-CM, GREM1-CM, GRE ...

[4] = tested on: SW480 cells; test: GREM1 expression in SW480 cells after rhGREM1, RT–qPCR; format: cell-based, human; conditions: n = 3 biological replicates
Description: Total RNA was extracted using Trizol reagent (Invitrogen, 15596026). According to the instructions, cDNA was generated using the PrimeScript RT reagent Kit with gDNA Eraser (Accurate Biology, AG11706). The SYBR Green Premix Pro Taq HS qPCR Kit (Accurate Biology, AG11701) was then used to quantify mRNA expression according to the manufacturer’s instructions. All results were calculated using the 2^−ΔΔCt method. Primers used in the study are listed in Supplementary Table 1.

[5] = tested on: HCT116 and SW480 cells; test: Transwell invasion assay; format: cell-based, human; conditions: HCT116 and SW480, Matrigel transwell, 48 h; n = 3 independent experiments
Description: To investigate the effect of secreted GREM1 on CRC cells, an in vitro GREM1 secretion system was established using HEK293 cells. Stably GREM1-expressing cells (pcDNA3.1-GREM1) and empty-vector transfected cells (pcDNA3.1) were cultured in DMEM/F12 medium with 10% FBS until 40% confluence. After complete removal of the normal culture medium, HEK293-GREM1 and HEK293-Vec cells were continuously cultured in DMEM/F12 medium without FBS for 5 days before medium collection. GREM1 or Vector conditioned medium (GREM1-CM/Vec-CM) was then centrifuged at 1000 rpm for 30 min and the supernatant was collected for further study.
Cells (1 × 10^5) were seeded in serum-free medium in the Matrigel-coated (Corning, 354480) transwell chambers (24-well insert, 8-µm pore size; BD Biosciences) for invasion experiments. The lower chamber was filled with RPMI1640 or DMEM containing 20% FBS. The migration of HCT116 and SW480 cells was measured in three random visual fields and quantified by microscopy after 48 h of incubation, followed by staining with DAPI or crystal violet. The invasive capacity of the cells was assessed using ImageJ software for quantification.

Cc1cccc(-c2[nH]c(C(C)(C)C)nc2-c2ccc3c(c2)OCO3)n1 [SB505124]
SMAD2/3/4 binding to SNAI1 promoter −787 site [1]: significantly decreased this binding | SMAD2/3/4 binding to GREM1 promoter −733 and −612 sites [2]: significantly reduced this binding | selectivity of SMAD2/3 phosphorylation block [3]: selectively blocks the type I TGFβ/Activin receptors-mediated SMAD2/3 phosphorylation | rhGREM1-induced GREM1 expression, effect of inhibitor [4]: completely reversed the effect of rhGREM1 | GREM1-CM-induced invasion, effect of inhibitor [5]: abolished; also recorded: significantly reduced
